From ChEMBL document CHEMBL6153066, “Discovery of CZY43 as a new small-molecule degrader of pseudokinase HER3” (Eur J Med Chem, 2025) come the findings set out here.

The target in assay [1] is T1, Receptor tyrosine-protein kinase erbB-3 (Homo sapiens, UniProt P21860). As to the kind of experiment: Induction of hydrophobic tag-mediated HER3 degradation in human SK-BR-3 cells incubated for 8 hrs by immunoblot analysis. It is filed as cell-based. In general terms: A western blot detects proteins with antibodies after separation by electrophoresis.
Assay [2] deals with T1, Receptor tyrosine-protein kinase erbB-3. As to the kind of experiment: Induction of hydrophobic tag-mediated HER3 degradation in human SK-BR-3 cells at 1000 nM by immunoblot analysis. As to conditions: time <= 24.0 hrs. It is filed as cell-based.
Assay [3] shares this target. As to the kind of experiment: Induction of hydrophobic tag-mediated HER3 degradation in human MDA-MB-453 cells upto 2000 nM incubated for 8 hrs by immunoblot analysis. It is filed as cell-based.
For assay [4] the target is unchanged. As to the kind of experiment: Induction of hydrophobic tag-mediated HER3 degradation in human A549 cells upto 2000 nM incubated for 8 hrs by immunoblot analysis. It is filed as cell-based.
For assay [5] the target is unchanged. As to the kind of experiment: Induction of Hsp90 binding to HER3 in human SK-BR-3 cells at 1 uM incubated for 8 hrs by Co-IP method. It is filed as cell-based.
Assay [6] shares this target. As to the kind of experiment: Induction of HER3 ubiquitination in human SK-BR-3 cells at 1 uM incubated for 8 hrs by Co-IP method. It is filed as cell-based.
The target is the same in assay [7]. As to the kind of experiment: Induction of hydrophobic tag-mediated HER3 degradation in human SK-BR-3 cells at 1 uM incubated for 8 hrs in presence of chloroquine by immunoblot analysis. It is filed as cell-based.
Assay [8] shares this target. As to the kind of experiment: Induction of hydrophobic tag-mediated HER3 degradation in human SK-BR-3 cells at 1 uM incubated for 8 hrs in presence of MG132 by immunoblot analysis. It is filed as cell-based.
Assay [9] deals with SK-BR-3. As to the kind of experiment: Induction of autophagy in human SK-BR-3 cells assessed as increase in LC3B-II level upto 2 uM incubated for 8 hrs by Western blot analysis. It is filed as functional, cell-based.
Assay [10] concerns the target T1, Receptor tyrosine-protein kinase erbB-3. As to the kind of experiment: Induction of hydrophobic tag-mediated HER3 degradation in human SK-BR-3 cells assessed as decrease in HER3 level upto 2000 nM incubated for 8 hrs by immunoblot analysis. It is filed as cell-based.
The target is the same in assay [11]. As to the kind of experiment: Induction of hydrophobic tag-mediated HER3 degradation in human SK-BR-3 cells assessed as decrease in p-AKT level upto 2000 nM incubated for 8 hrs by immunoblot analysis. It is filed as cell-based.
The test system of assay [12] is SK-BR-3. As to the kind of experiment: Antiproliferative activity against human SK-BR-3 cells incubated for 72 hrs by CCK8 assay. It is filed as functional, cell-based. As to conditions: SK-BR-3, 72 h. A general note: Formazan colour is commonly taken as a measure of viable cells.
Assay [13] concerns SK-BR-3. As to the kind of experiment: Inhibition of cell adhesion in human SK-BR-3 cells upto 2000 nM incubated for 8 hrs by crystal violet staining based analysis. It is filed as functional.

Structures are written as SMILES. Activity calls are given as the source filed them. The calls are words filed in the database; no cut-off is given here.

T1 sequence (P21860 whole entry): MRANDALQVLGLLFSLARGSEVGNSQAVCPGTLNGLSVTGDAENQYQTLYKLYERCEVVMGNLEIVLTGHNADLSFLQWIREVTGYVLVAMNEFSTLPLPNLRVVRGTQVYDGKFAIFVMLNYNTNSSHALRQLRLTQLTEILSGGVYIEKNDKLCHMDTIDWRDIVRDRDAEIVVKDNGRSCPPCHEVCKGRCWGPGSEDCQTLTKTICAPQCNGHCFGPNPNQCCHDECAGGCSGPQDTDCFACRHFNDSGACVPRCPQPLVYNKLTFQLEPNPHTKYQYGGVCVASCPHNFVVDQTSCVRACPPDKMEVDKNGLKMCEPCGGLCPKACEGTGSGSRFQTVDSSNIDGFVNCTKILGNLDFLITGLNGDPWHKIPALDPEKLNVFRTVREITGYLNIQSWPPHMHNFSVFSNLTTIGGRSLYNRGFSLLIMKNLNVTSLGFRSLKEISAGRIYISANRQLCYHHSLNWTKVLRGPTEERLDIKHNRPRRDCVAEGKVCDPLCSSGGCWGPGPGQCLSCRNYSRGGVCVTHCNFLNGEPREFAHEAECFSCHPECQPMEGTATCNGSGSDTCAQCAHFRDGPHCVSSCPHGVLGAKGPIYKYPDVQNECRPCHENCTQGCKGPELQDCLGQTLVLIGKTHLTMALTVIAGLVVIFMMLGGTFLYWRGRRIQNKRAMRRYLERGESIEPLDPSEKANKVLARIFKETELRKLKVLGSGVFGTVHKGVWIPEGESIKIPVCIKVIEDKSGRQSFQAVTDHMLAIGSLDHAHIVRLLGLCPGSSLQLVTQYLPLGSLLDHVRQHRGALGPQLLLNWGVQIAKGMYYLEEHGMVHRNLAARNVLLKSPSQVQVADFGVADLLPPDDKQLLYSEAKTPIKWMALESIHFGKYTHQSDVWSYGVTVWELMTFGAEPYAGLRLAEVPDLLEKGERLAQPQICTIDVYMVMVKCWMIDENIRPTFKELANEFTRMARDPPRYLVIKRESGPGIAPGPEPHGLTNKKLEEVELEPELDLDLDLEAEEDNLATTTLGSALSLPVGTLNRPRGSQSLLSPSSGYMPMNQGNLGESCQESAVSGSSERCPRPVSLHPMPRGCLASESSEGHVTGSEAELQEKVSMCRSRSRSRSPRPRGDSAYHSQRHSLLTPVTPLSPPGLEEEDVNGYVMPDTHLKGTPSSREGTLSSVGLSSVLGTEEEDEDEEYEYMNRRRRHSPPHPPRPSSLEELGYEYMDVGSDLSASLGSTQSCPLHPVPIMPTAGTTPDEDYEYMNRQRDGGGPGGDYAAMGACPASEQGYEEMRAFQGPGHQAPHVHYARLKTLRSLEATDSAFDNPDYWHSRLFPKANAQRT

The DC50 is the concentration at which degradation of the target reaches its halfway point. High values mean degradation only at high concentration, low ones degradation at low concentration. In general, IC50 refers to the concentration that gives 50% inhibition. In assay [1], `COc1cc(Nc2c(C#N)cnc3cc(OCCCN4CCC5(CC4)CCN(CCC46C[C@H]7C[C@@H](C4)C[C@@H](C6)C7)CC5)c(OC)cc23)c(Cl)cc1Cl` gave a half-maximal degradation concentration (DC50) of 559 nM. Besides, the Activity entry in assay [1] (dose <= 2000.0 nM) is “Dose-dependent-effect”; in assay [2] it was “Time-dependent-effect”; in assay [10], “Active; Exhibited As More Potent Than Bosutinib”; in assay [11] it was “Active; Exhibited As More Potent Than Bosutinib”. For the same compound, the outcome (in assay [3]; in assay [4]; in assay [5]; in assay [6]; in [8]; in the assay with SK-BR-3 [9]) was Active. Further, the result in assay [7] was inactive. This compound returned a half-maximal inhibitory concentration (IC50) in the assay on SK-BR-3 [12] of 530 nM. Besides, in the assay with SK-BR-3 [13], the inhibition result is “Active”.

For the compound `COc1cc(Nc2c(C#N)cnc3cc(OCCCN4CCN(C)CC4)c(OC)cc23)c(Cl)cc1Cl` [BOSUTINIB], 5140 nM corresponded to half-maximal inhibition in the assay on SK-BR-3 [12] (IC50).
